{"source": "paper PMC8103899", "about": "“Allyl Isothiocyanate: A TAS2R38 Receptor-Dependent Immune Modulator at the Interface Between Personalized Medicine and Nutrition” (Frontiers in Immunology, 2021)", "key": {"TNF-α": {"test_system": "TNF-α", "experiment": "TNF-α secretion of PBMC (ELISA), LPS stimulated or unstimulated", "format": "cell-based, human", "protocol": "(§1) PBMC (1x10^6/mL) cultured in RPMI 1640 medium supplemented with 10% heat-inactivated fetal calf serum, 2 mM L-glutamine, 100 U/ml penicillin/streptomycin were stimulated with 0.5 ng/ml CD3/CD28 MAbs and exposed to the test compounds. After 24 h, supernatants were collected and stored at -80°C until analysis using the human MACSplex cytokine 12-kit (Miltenyi Biotec GmbH, Bergisch Gladbach, Germany) according to manufacturer’s protocol to quantify cytokine secretion. Supernatants were also used for photometric quantification by the human TNF-alpha or IL-1β ELISA Ready-Set-Go kit from eBIoscience (Frankfurt, Germany) according to the manufacturer’s instructions.\n(§2) Figure 5 In bacterial LPS stimulated PBMC, AITC triggers MAPK activation and TNF-α inhibition in dependence of the TAS2R38 genotype. PBMC were exposed to AITC or 0.01% DMSO (SC) together with 100 pg/mL LPS. (A) Representative immunoblots are given. Densitometric analysis was done to quantify the immunoblots using Quantity One software (Bio-Rad, Munich, Germany) and normalized against β-actin, which was used as loading control. (B, C) Cytokine secretion at 3 and 24 h was analyzed using ELISA kits. (D) Time kinetic of TNF-α mRNA expression. Results are means + SD and given as fold of the solvent control. Results were calculated relative to the corresponding solvent control (SC, 0.01% DMSO). Significance of difference was determined compared to the respective SC by one-way ANOVA, *p < 0.05, **p < 0.01."}, "IL-1β": {"test_system": "IL-1β", "experiment": "IL-1β release of LPS stimulated PBMC (ELISA)", "format": "cell-based, human", "settings": "LPS activated PBMC", "protocol": "as §1\nas §2, with “(D) Time kinetic of TNF-α mRNA expression. Results are means + SD and given as fold of the solvent control.” left out"}, "TRPA1": {"test_system": "TRPA1", "settings": "TRPA1 overexpressing cells, read-out: EC50 for the activation of TRPA1, cited from earlier work"}, "TNF-alpha mRNA": {"test_system": "TNF-alpha mRNA", "experiment": "TNF-alpha mRNA expression in LPS stimulated PBMC (qRT-PCR)", "format": "cell-based, human", "settings": "LPS stimulated PBMC from PAV/PAV subjects, transient", "protocol": "as §2"}, "[1]": {"test_system": "TNF-α, IL-1β, IL-2, IL-6, IL17-A, IL-10", "experiment": "Cytokine secretion of CD3/CD28 mAbs stimulated PBMC (MACSplex / ELISA)", "format": "cell-based, human", "protocol": "as §1\nFigure 6 In […] PBMC, AITC triggers MAPK activation as well as TNF-α release in dependence of the TAS2R38 genotype. PBMC were exposed to AITC or 0.01% DMSO (SC) together with 0.5 ng/mL CD3/CD28 MAbs for 24h (A, B). Cytokine secretion was analyzed using the human MACSplex cytokine 12-kit or ELISA kits. Results are mean values + SD and given as fold of the solvent control. Significance of difference was determined compared to the respective SC as determined by one-way ANOVA, *p < 0.05, **p < 0.01."}, "TAS2R38-PAV receptor": {"test_system": "TAS2R38-PAV receptor", "set-up": "method as in PMID 20022913", "settings": "cited from earlier work"}, "[2]": {"set-up": "method as in PMID 26317351", "settings": "rats, oral dosing; cited from earlier work"}, "E. coli K-12": {"test_system": "E. coli K-12", "experiment": "Bactericidal activity of PBMC co-incubated with E. coli K-12 (DiBAC4(3) depolarization)", "format": "cell-based, Escherichia coli", "settings": "MOI 0.5", "protocol": "E. coli K-12 bacteria were grown in Luria-Bertani medium at 37°C to mid-logarithmic-phase as determined by OD600. Next, PBMC (1x10^6/mL) were incubated with E. coli K-12 at MOI 0.5 in RPMI 1640 medium supplemented with 2% heat-inactivated fetal calf serum and exposed to the test compounds for 120 min in a humidify condition (5% CO2, 37°C). Thereafter, 1 µg/mL of the membrane potential dye DiBAC4(3) was added and incubated for 10 min at room temperature in the dark. Subsequently, the cells were washed once with PBS and centrifuged at 4500 x g for 10 min. The percentage of depolarized bacteria was determined using a FACSCalibur™ flow cytometer with an excitation wavelength of 493 nm.\nFigure 3 AITC stimulates NO production and exerts bactericidal activity in dependence of the TAS2R38 haplotype. […] Fluorescence signals (ex 488 nm, em 530± 30 nm) were monitored using a FACSCalibur™. The median fluorescence intensity (MFI) of each sample was calculated using FlowJo software (Ashland, Oregon, USA). […] Cell membrane potential depolarization was determined by staining bacteria with 1 µg/ml DiBAC4(3) for 10 min, in the dark at room temperature. […] Significance of difference was calculated relative to the respective control by one-way ANOVA. […]"}}, "note": "Where two headings read alike, the source gives them in different places."}
{"smiles": "C=CCN=C=S", "note": "[AITC, allyl isothiocyanate]", "values": [{"measurement": "TNF-α release", "setting": "TNF-α; AITC exposure without inflammatory stimulus (data not shown)", "value": "no change"}, {"measurement": "inhibition at 3 µM", "setting": "TNF-α; Homo sapiens, 3 h LPS activated PBMC, 3 µM AITC, dependent on TAS2R38 receptor functionality, read-out: peak inhibition of TNF-α secretion", "value": 54, "unit": "%"}, {"measurement": "TNF-α secretion", "setting": "TNF-α; LPS, prolonged incubation 24 h, PAV/PAV group, all tested concentrations", "value": "abolished the effect"}, {"measurement": "release of IL-1β", "setting": "IL-1β", "value": "suppressed in both AVI/AVI and PAV/PAV groups"}, {"measurement": "EC50", "setting": "TRPA1; ref 45", "value": "[…]"}, {"measurement": "EC50", "setting": "TRPA1; ref 46", "value": "[…]"}, {"measurement": "inhibition of TNF-alpha mRNA expression", "setting": "TNF-alpha mRNA", "value": 50, "unit": "%"}, {"measurement": "modulation of IL-2, IL-6, IL17-A and IL-10", "setting": "[1]; CD3/CD28 mAbs stimulated PBMC", "value": "not clearly genotype dependent"}, {"measurement": "effect on TNF-α", "setting": "[1]; CD3/CD28 mAbs stimulated cells, AVI/AVI group, 24h", "value": "No effect"}, {"measurement": "TNF-α secretion", "setting": "[1]; CD3/CD28 mAbs stimulated cells, PAV/PAV, 24h", "value": "Similar, but less strong effects"}, {"measurement": "IL-1β", "setting": "[1]; CD3/CD28 mAbs stimulated, PAV/PAV vs. AVI/AVI cells", "value": "differential inhibition"}, {"measurement": "activation of TAS2R38 taster variant among 25 TAS2Rs", "setting": "TAS2R38-PAV receptor; HEK293T-Gα16gust44 cells transiently transfected", "value": "selectively triggered the taster variant"}, {"measurement": "activation of the TAS2R38-PAV receptor", "setting": "TAS2R38-PAV receptor", "value": "activated"}, {"measurement": "threshold concentration", "setting": "TAS2R38-PAV receptor; heterologous expressed TAS2R38-PAV, in vitro", "value": "[…]"}, {"measurement": "time to peak plasma level", "setting": "[2]", "value": "≤ 0.5", "unit": "h"}, {"measurement": "bactericidal activity", "setting": "E. coli K-12; AVI/AVI cells", "value": "no effect"}, {"measurement": "bactericidal activity", "setting": "E. coli K-12; PAV/PAV cells", "value": "increased bactericidal activity"}]}
